Columns and labels:
HTLV-1 protease [1] = target: T1, HTLV-1 protease (Human T-cell leukemia virus type I, UniProt Q82134, L40I); format: biochemical; set-up: This protease construct has 9 amino acids removed from the C-terminus to facilitate crystallization; made in house; host or cells: Escherichia coli; conditions: 1:1 ratio inhibitor to protease (1 μM), 60 min, 37° C.
wild-type HIV-1 = assay: HIV antiviral assay (293T / TZM-BL luciferase); format: cell-based; conditions: read-out: Antiviral WT EC50
[2] = tested on: SP cells (chronically infected with HTLV-1); assay: SP cell Gag processing (HTLV-1 maturation) immunoblot; format: cell-based; conditions: for amount of full-length (FL) Gag and larger size cleavage intermediates (CI): SP cell lysates and supernatants, 50 μM or 100 μM; for FL Gag band percentage (mean±SEM): 48 h
Description: SP Cell Culture and Protease Inhibition Treatments. SP cells were cultured in RPMI (Invitrogen, Carlsbad, Calif., USA) containing 20% HyClone (FC3) from Thermo Scientific (Waltham, Mass.) and 1% penicillin-streptomycin from Life Technologies (Grand Island, N.Y., USA) and supplemented with human IL-2 (Roche Diagnostics, Indianapolis, Ind., USA) at a concentration of 10 U/mL. Cells were grown to a density of […], and the media was exchanged into media containing the drug treatment at the two concentrations tested (50 μM and 100 μM). DMSO was used as a treatment control at the max concentration (0.01% v/v) as used for the sample with the highest inhibitor concentrations. Cells were treated for 48 h in an incubator at 37° C. with 5% CO2. To harvest the samples, the cell culture supernatant and cells were separated with a 5 min spin at 1000 g. The cell culture supernatant was filtered through a 0.22 μm syringe filter and ultracentrifuged over an 8% Optiprep cushion (Millipore Sigma, USA) (109,000 g for 1.5 hat 4° C.) in a 50.1 Ti rotor (Beckman Coulter, USA). The resulting viral pellet was resuspended in 200 μL of RIPA buffer (150 mM NaCl, 1% (v/v) Nonidet P-40, 0.5% sodium deoxycholate, 0.1% SDS, 25 mM Tris pH 7.4) supplemented with a cOmplete, Mini, EDTA-free cellular Protease Inhibitor Cocktail (Roche Diagnostics, Indianapolis, Ind., USA). The SP cell pellet was washed once with phosphate buffered saline (PBS) and resuspended in a final volume of 200 μL of a RIPA buffer cOmplete, Mini, EDTA-free cellular Protease Inhibitor Cocktail (Roche Diagnostics, Indianapolis, Ind., USA). Immunoblot samples were then prepared and detected as described in the previous method section. Gel band quantification analysis was performed using Fiji. A one-tailed t test for two independent means (95% confidence) was used to determine if the FL Gag band from the various drug treatments in the immunoblot analysis was statistically different from the DMSO controls.
To further validate inhibition of HTLV-1 protease, SP cells (which are chronically infected with HTLV-1) were treated with the same inhibitors (FIG. 20). The SP cell line harbors low numbers of HTLV-1 proviruses and produces virus particles that incorporate full-length Gag, which makes SP an ideal cell culture system for testing the inhibition of HTLV-1 maturation. Gag cleavage products were detected by using a CA (p24) primary antibody in both SP cell lysates and virus particles released in the cell culture supernatants. […] For the Ex.7 treatment of the viral particles produced from the SP cells, the FL Gag band percentage was 5.8±2.8% and 12.9±3.1% (mean±SEM) for 50 μM and 100 μM treatments, respectively (FIGS. 21, 23).

HIV-1 protease 11 Mutant = target: T2, HIV-1 protease 11 Mutant (Human immunodeficiency virus type 1 group M subtype B, UniProt P12497); assay: HIV enzyme inhibition assay (Ki), 11 Mutant variant; format: biochemical; conditions: drug-resistant protease variant 11 Mutant
T2 construct: onto NL4-3 wild-type protease on a pET11a plasmid with codon optimization for protein expression in Escherichia coli; A Q7K mutation was included to prevent autoproteolysis

HIV-1 protease 10 Mutant = target: T3, HIV-1 protease 10 Mutant (Human immunodeficiency virus type 1 group M subtype B, UniProt P12497); assay: HIV enzyme inhibition assay (Ki), 10 Mutant variant; format: biochemical; conditions: drug-resistant protease variant 10 Mutant
T3 construct: onto NL4-3 wild-type protease on a pET11a plasmid with codon optimization for protein expression in Escherichia coli; A Q7K mutation was included to prevent autoproteolysis

HTLV-1 protease [3] = target: T1, HTLV-1 protease; conditions: HTLV-1 protease
HTLV-1 protease [4] = target: T1, HTLV-1 protease; assay: biochemical
HIV-1 protease KY24 = HIV-1 protease KY24 (Human immunodeficiency virus type 1, UniProt P12497); conditions: read-out: Ki KY24; drug-resistant protease variant KY24
HIV-1 protease I50V/A71V = target: T4, HIV-1 protease I50V/A71V (Human immunodeficiency virus type 1 group M subtype B, UniProt P12497, A559V/I538V/Q495K); assay: HIV enzyme inhibition assay (Ki), I50V/A71V variant; format: biochemical; conditions: drug-resistant protease variant I50V/A71V
T4 construct: onto NL4-3 wild-type protease on a pET11a plasmid; made in house

HIV-1 protease I84V = target: T5, HIV-1 protease I84V (Human immunodeficiency virus type 1 group M subtype B, UniProt P12497, I572V/Q495K); assay: HIV enzyme inhibition assay (Ki), I84V variant; format: biochemical; conditions: drug-resistant protease variant I84V
T5 construct: onto NL4-3 wild-type protease on a pET11a plasmid; made in house

HIV-1 protease 8 Mutant = target: T6, HIV-1 protease 8 Mutant (Human immunodeficiency virus type 1 group M subtype B, UniProt P12497); assay: HIV enzyme inhibition assay (Ki), 8 Mutant variant; format: biochemical; conditions: drug-resistant protease variant 8 Mutant
T6 construct: onto NL4-3 wild-type protease on a pET11a plasmid with codon optimization for protein expression in Escherichia coli; A Q7K mutation was included to prevent autoproteolysis

CC(C)CN(C[C@@H](O)[C@H](Cc1ccccc1)NC(=O)O[C@H]1CO[C@H]2OCC[C@H]21)S(=O)(=O)c1ccc(N)cc1 [DRV, darunavir, reference compound]
inhibition of Gag cleavage and VLP maturation (HTLV-1 protease [1]): effectively inhibited Gag cleavage and VLP maturation | EC50 (wild-type HIV-1): 4.75 nM | amount of full-length (FL) Gag and larger size cleavage intermediates (CI) [2]: increased

CCOP(=O)(COc1ccc(C[C@H](NC(=O)O[C@H]2CO[C@H]3OCC[C@H]32)[C@H](O)CN(CC(CC)CC)S(=O)(=O)c2ccc(N)cc2)cc1)OCC [Example 7, (3R,3aS,6aR)-hexahydrofuro[2,3-b]furan-3-yl ((2S,3R)-4-((4-amino-N-(2-ethylbutyl)phenyl)sulfonamido)-1-(4-((diethoxyphosphoryl)methoxy)phenyl)-3-hydroxybutan-2-yl)carbamate]
inhibition of Gag cleavage and VLP maturation (HTLV-1 protease [1]): effectively inhibited Gag cleavage and VLP maturation | Ki (HIV-1 protease 11 Mutant): 106 ± 7 nM | EC50 (wild-type HIV-1): 16 nM | Ki (HIV-1 protease 10 Mutant): 51.6 ± 5.5 nM | fold improvement of Ki compared to DRV (HTLV-1 protease [3]; relative to DRV): 26 fold | fold better inhibition than UM6 (HTLV-1 protease [3]; relative to UM6): 4 fold | Ki (HTLV-1 protease [4]): 30 ± 10 nM | Ki (HIV-1 protease KY24): 1.08 ± 0.06 nM | Ki (HIV-1 protease I50V/A71V): < 0.005 nM | Ki (HIV-1 protease I84V): < 0.005 nM | Ki (HIV-1 protease 8 Mutant): 4.71 ± 0.73 nM | FL Gag band percentage (mean±SEM) ([2]; SP cell lysate, 50 μM): 32.4±15.5% | FL Gag band percentage (mean±SEM) ([2]; SP cell lysate, 100 μM): 41.0±13.7% | amount of full-length (FL) Gag and larger size cleavage intermediates (CI) [2]: increased | FL Gag band percentage (mean±SEM) ([2]; viral particles produced from SP cells, 50 μM): 5.8±2.8% | FL Gag band percentage (mean±SEM) ([2]; viral particles produced from SP cells, 100 μM): 12.9±3.1%
